Where two headings read alike, the source gives them in different places.
What was measured:
[1] = tested on: greenhouse red spider mite (Tetranychus urticae); test: Tetranychus urticae spray test, OP-resistant (TETRUR), bean leaf disks; type: in vivo; details: bean leaf disks, after 6 days; for pest or weed control at 500 g/ha: Tetranychus urticae, foliar, 144 h, read-out: efficacy in %
Experimental: Tetranychus urticae—Spray Test, OP-Resistant (TETRUR)
Solvent: 78.0 parts by weight of acetone
• 1.5 parts by weight of dimethylformamide Emulsifier: alkylaryl polyglycol ether
To produce a suitable preparation of active compound, 1 part by weight of active compound is dissolved using the stated parts by weight of solvent and made up with water containing an emulsifier concentration of 1000 ppm until the desired concentration is attained. To produce further test concentrations, the preparation is diluted with emulsifier-containing water.
disks of bean leaves (Phaseolus vulgaris) infested with all stages of the greenhouse red spider mite (Tetranychus urticae) are sprayed with an active compound preparation of the desired concentration.
After 6 days, the efficacy in % is determined. 100% means that all the spider mites have been killed; 0% means that none of the spider mites have been killed.

[2] = log P determination by HPLC on reversed-phase columns (C 18), analogously to OECD Guideline 117; type: physicochemical; details: for chromatographic logP: reversed-phase C18 HPLC column; for logP (HCOOH): LC-MS in the acidic range, pH 2.7, 0.1% aqueous formic acid / acetonitrile; for logP (HCOOH) / logP (neutral): HPLC reversed-phase C 18; for logP (neutral): LC-MS in the neutral range, pH 7.8, 0.001 molar aqueous ammonium hydrogencarbonate / acetonitrile
Experimental: The log P values were determined analogously to OECD Guideline 117 (EC Directive 92/69/EEC) by HPLC (high-performance liquid chromatography) using reversed-phase columns (C 18), by the following methods:
[a] The LC-MS determination in the acidic range was effected at pH 2.7 with 0.1% aqueous formic acid and acetonitrile (contains 0.1% formic acid) as eluents; linear gradient from 10% acetonitrile to 95% acetonitrile. log P^[a] is also referred to as log P(HCOOH). [b] LC-MS determination in the neutral range was effected at pH 7.8 with 0.001 molar aqueous ammonium hydrogencarbonate solution and acetonitrile as eluents; linear gradient from 10% acetonitrile to 95% acetonitrile. log P^[…] is also referred to as log P(neutral).

[3] = acidic range, pH 2.7, 0.1% aqueous formic acid and acetonitrile, read-out: log P[a] / log P(HCOOH)
[4] = neutral range, pH 7.8, 0.001 molar aqueous ammonium hydrogencarbonate and acetonitrile, read-out: log P[b] / log P(neutral)

| chromatographic logP [2, 3] | chromatographic logP [2, 4] | Structure (SMILES) | pest or weed control at 500 g/ha ([1]; application rate 500 g/ha) | efficacy in % ([1]; application rate 500 g/ha) | logP (HCOOH) [2] | logP (neutral) [2] | efficacy in % ([1]; application rate 100 g/ha) |
| --- | --- | --- | --- | --- | --- | --- | --- |
| 2.36 | 2.31 | Cc1cc(F)c(N2CCNC2=O)cc1SCC(F)(F)F [Example 9, 1-{2-Fluoro-4-methyl-5-[(2,2,2-trifluoroethyl)sulfanyl]phenyl}imidazolidin-2-one] | 90% |  |  |  |  |
| 3.6 | 3.5 | Cc1cc(F)c(N2C(=O)CSC2=NCC(F)(F)F)cc1SCC(F)(F)F [Example 11, 3-{2-Fluoro-4-methyl-5-[(2,2,2-trifluoroethyl)sulfanyl]phenyl}-2-[(2,2,2-trifluoroethyl)imino]-1,3-thiazolidin-4-one] | 90% |  |  |  |  |
| 2.04 | 2.01 | Cc1cc(F)c(N2C(=O)N(C)C(C)(C)C2=O)cc1[S+]([O-])CC(F)(F)F (stereo not drawn) [Example 17, 3-{2-Fluoro-4-methyl-5-[(2,2,2-trifluoroethyl)sulfinyl]phenyl}-1,5,5-trimethylimidazolidine-2,4-dione] | 100% |  |  |  |  |
| 2.96 | 2.92 | Cc1cc(F)c(N2C(=O)N(C)C(C)(C)C2=O)cc1SCC(F)(F)F [Example 18, 3-{2-Fluoro-4-methyl-5-[(2,2,2-trifluoroethyl)sulfanyl]phenyl}-1,5,5-trimethylimidazolidine-2,4-dione] | 100% |  |  |  |  |
| 2.52 | 2.45 | Cc1cc(F)c(N2C(=O)CCC2=O)cc1SCC(F)(F)F [Example 19, 1-{2-Fluoro-4-methyl-5-[(2,2,2-trifluoroethyl)sulfanyl]phenyl}pyrrolidine-2,5-dione] | 100% |  |  |  |  |
| 1.63 | 1.63 | Cc1ccc(-n2c(=O)n(C)c(=O)n2C)cc1[S+]([O-])CC(F)(F)F (stereo not drawn) [Example 21, 1,4-Dimethyl-2-{4-methyl-3-[(2,2,2-trifluoroethyl)sulfinyl]phenyl}-1,2,4-triazolidine-3,5-dione] | 100% |  |  |  |  |
|  |  | Cn1c(=O)n(C)n(-c2ccc(Cl)c(SCC(F)(F)F)c2)c1=O [Example 31] |  | 90% | 2.72 | 2.69 |  |
|  |  | COc1ccc(-n2c(=O)n(C)c(=O)n2C)cc1[S+]([O-])CC(F)(F)F (stereo not drawn) [Example 32] |  | 100% | 1.58 | 1.54 |  |
|  |  | Cn1c(=O)n(C2CC2)c(=O)n1-c1ccc(Cl)c([S+]([O-])CC(F)(F)F)c1 (stereo not drawn) [Example 39] |  | 100% | 2.20 | 2.17 |  |
|  |  | Cn1c(=O)n(C2CC2)c(=O)n1-c1ccc(Cl)c(SCC(F)(F)F)c1 [Example 40] |  | 100% | 3.04 | 2.98 |  |
|  |  | Cn1c(=O)n(C2CC2)c(=O)n1-c1ccc(C#N)c([S+]([O-])CC(F)(F)F)c1 (stereo not drawn) [Example 43] |  | 90% | 1.93 | 1.90 |  |
|  |  | Cn1c(=O)n(C2CC2)c(=O)n1-c1ccc(Br)c(SCC(F)(F)F)c1 [Example 46] |  | 100% | 3.11 | 3.05 |  |
|  |  | C=CCn1c(=O)n(C2CC2)c(=O)n1-c1ccc(C)c([S+]([O-])CC(F)(F)F)c1 (stereo not drawn) [Example 49] |  | 90% | 2.28 | 2.24 |  |
|  |  | Cc1ccc(-n2c(=O)n(C3CC3)c(=O)n2CC(C)C)cc1[S+]([O-])CC(F)(F)F (stereo not drawn) [Example 50] |  | 90% | 3.58 | 3.47 |  |
|  |  | CCn1c(=O)n(C)c(=O)n1-c1ccc(C)c(SCC(F)(F)F)c1 [Example 51] |  | 90% | 2.82 | 2.83 |  |
|  |  | Cn1c(=O)n(C2CC2)c(=O)n1-c1ccc(C(F)(F)F)c(SCC(F)(F)F)c1 [Example 53] |  | 100% | 3.33 | 3.23 |  |
|  |  | Cc1cc(F)c(-n2[nH]c(=O)n(C)c2=O)cc1SCC(F)(F)F [Example 55] |  | 90% | 2.09 | 0.60 |  |

| chromatographic logP [2, 3] | chromatographic logP [2, 4] | Structure (SMILES) | pest or weed control at 500 g/ha ([1]; application rate 500 g/ha) | efficacy in % ([1]; application rate 500 g/ha) | logP (HCOOH) [2] | logP (neutral) [2] | efficacy in % ([1]; application rate 100 g/ha) |
| --- | --- | --- | --- | --- | --- | --- | --- |
|  |  | Cc1ccc(-n2c(=O)n(C)c(=O)n2-c2ccc(C)c(SCC(F)(F)F)c2)cc1SCC(F)(F)F [Example 56] |  | 90% | 4.34 | 4.05 |  |
|  |  | C=CCn1c(=O)n(C)c(=O)n1-c1ccc(C)c(SCC(F)(F)F)c1 [Example 58] |  | 100% | 3.03 | 2.88 |  |
|  |  | C=CCn1c(=O)n(C)c(=O)n1-c1ccc(C)c([S+]([O-])CC(F)(F)F)c1 (stereo not drawn) [Example 59] |  | 100% | 2.03 | 2.00 |  |
|  |  | Cc1ccc(-n2c(=O)n(C)c(=O)n2C(C)C)cc1SCC(F)(F)F [Example 61] |  | 90% | 3.33 | 3.27 |  |
|  |  | Cc1cc(F)c(-n2c(=O)n(C)c(=O)n2C(C)C)cc1SCC(F)(F)F [Example 62] |  | 90% | 3.29 | 3.23 |  |
|  |  | Cc1ccc(-n2c(=O)n(C3CC3)c(=O)n2C(C)C)cc1SCC(F)(F)F [Example 63] |  | 90% | 3.65 | 3.57 |  |
|  |  | Cc1cc(F)c(-n2c(=O)n(C3CC3)c(=O)n2C(C)C)cc1[S+]([O-])CC(F)(F)F (stereo not drawn) [Example 64] |  | 90% | 2.51 | 2.45 |  |
|  |  | Cc1cc(F)c(-n2c(=O)n(C3CC3)c(=O)n2C(C)C)cc1SCC(F)(F)F [Example 65] |  | 100% | 3.59 | 3.51 |  |
|  |  | Cc1cc(F)c(-n2[nH]c(=O)n(C3CC3)c2=O)cc1SCC(F)(F)F [Example 66] |  | 100% | 2.30 | 0.69 |  |
|  |  | Cn1c(=O)n(C)n(-c2ccc(Br)c([S+]([O-])CC(F)(F)F)c2)c1=O (stereo not drawn) [Example 67] |  | 100% | 2.05 | 2.02 |  |
|  |  | Cn1c(=O)n(C)n(-c2ccc(Br)c(SCC(F)(F)F)c2)c1=O [Example 68] |  | 100% | 2.83 | 2.78 |  |
|  |  | Cn1c(=O)n(C2CC2)c(=O)n1-c1cc([S+]([O-])CC(F)(F)F)c(Br)cc1F (stereo not drawn) [Example 72] |  | 90% | 2.24 | 2.18 |  |
|  |  | Cc1cc(F)c(-n2c(=O)n(-c3cccc(C(F)(F)F)c3)c(=O)n2C)cc1SCC(F)(F)F [Example 76] |  | 100% | 4.09 | 3.94 |  |
|  |  | C=CCn1c(=O)n(-c2ccc(C)c(SCC(F)(F)F)c2)n(-c2ccc(C)c(SCC(F)(F)F)c2)c1=O [Example 79] |  |  | 4.86 | 4.67 | 90% |
|  |  | Cc1ccc(-n2c(=O)n(C)c(=O)n2-c2ccc(C)c([S+]([O-])CC(F)(F)F)c2)cc1[S+]([O-])CC(F)(F)F (stereo not drawn) [Example 82] |  | 90% | 2.67 | 2.61 |  |
|  |  | CCn1c(=O)[nH]n(-c2cc(SCC(F)(F)F)c(C)cc2F)c1=O [Example 85] |  | 90% | 2.43 | 0.86 |  |

Reference: patent US9981928B2, “Aryl sulfide derivatives and aryl sulfoxide derivatives as acaricides and insecticides” (BAYER CROPSCIENCE AKTIENGESELLSCHAFT, priority 2013, dated 2018)
